The values that follow come from patent US10647743B2, “Method of making biologically active alpha-beta peptides” (priority 2008, dated 2020).

In one series the target is gp41-5 (Human immunodeficiency virus type 1 group M subtype B, UniProt P04578, C598G/DEL582-595/DEL601-626/T627G/W596S). Kind of series: biochemical. The format is binding, HIV. Conditions: for Ki: competition FP.
Series [1] deals with T1, proteinase K (Parengyodontium album, UniProt P06873). The settings on record: relative to 3.
T1 sequence (P06873 106-384): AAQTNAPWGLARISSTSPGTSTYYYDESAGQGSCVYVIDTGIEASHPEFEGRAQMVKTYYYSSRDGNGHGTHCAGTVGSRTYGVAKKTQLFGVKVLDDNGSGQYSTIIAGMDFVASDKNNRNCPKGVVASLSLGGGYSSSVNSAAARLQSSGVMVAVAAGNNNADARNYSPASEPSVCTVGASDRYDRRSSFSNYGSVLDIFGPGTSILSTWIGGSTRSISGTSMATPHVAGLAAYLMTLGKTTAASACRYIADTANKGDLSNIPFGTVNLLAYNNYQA
For another series, the target named is T2, NHR α-peptide 1 (Human immunodeficiency virus type 1 group M subtype B, UniProt P04578).
T2 construct: made in house; host or cells: chemical synthesis (Fmoc solid phase)
Kind of series: CD thermal unfolding of 1:1 NHR + CHR peptide mixtures. The format is physicochemical, HIV. Conditions: Table 2; CD at 222 nm, 1:1 mixture with NHR α-peptide 1, PBS, 20 μM total peptide. How it is done: The interactions of select α/β-peptides with the gp41 NHR domain were further investigated by circular dichroism (CD) spectroscopy. The CD spectra of 3, 4, 5, 8, 9 and were measured, both alone (see FIG. 5A) and in a 1:1 mixture with NHR α-peptide 1 (see FIGS. 3A, 3B, 3C, and 3D, respectively). See also FIGS. 5B and 5C for the superimposed spectra. […] The magnitude of the CD signatures among the well-folded mixtures (1+3, 1+5 and 1+10, FIGS. 3A, 3C, and 3D, respectively) are similar, but the ratio of intensities at 208 and 222 nm changes as a function of β-residue content (more β-residues tracks with a less intense peak at 222 nm).
The interactions of CHR α-peptide 3 and α/β-peptide analogues 4, 5, 8 and 10 with a peptide derived from the gp41 NHR domain (1) were investigated by circular dichroism (CD) spectroscopy. […] The magnitude of the CD signatures among the well-folded mixtures (1+3, 1+5, 1+8 and 1+10) are similar, but the ratio of intensities at 208 and 222 nm changes as a function of β-residue content (higher β-residue content is correlated with a less intense peak at 222 nm). This trend is consistent with previous studies on helical oligomers containing mixed α/β backbones.
Circular Dichroism Spectroscopy. Circular dichroism measurements were carried out on an Aviv 202SF Circular Dichroism Spectrophotometer. Samples of each peptide were prepared at 20 μM concentration in PBS. Solutions of 1:1 peptide mixtures were prepared by mixing equal volumes from the same 20 μM stock solutions used for individual peptide measurements. Spectra were recorded in a 1 mm cell with a step size of 1 nm and an averaging time of 5 sec. All spectra are background corrected against buffer measured in the same cell. Thermal melts were carried out in 5-degree increments with an equilibration time of 10 min between each temperature change. Thermal unfolding data were fit to a simple two state folding model Shortle, D.; Meeker, A. K.; Freire, E. Biochemistry 1988, 27, 4761-4768) using GraphPad Prism.

For series [2], the target named is T1, proteinase K. Kind of series: in vitro. Conditions: for half-life at 20 μM: proteinase K solution in TBS.
For a further series, the system named is HIV-1 DJ258. Conditions: read-out: Inhibition of HIV-1 infectivity, IC50 (nM), R5 strains, DJ258; TZM-bl cells; mean ± S.E.M., three experiments.
The subject of a further series is HIV-1 CC 1/85. The settings on record: read-out: Inhibition of HIV-1 infectivity, IC50 (nM), R5 strains, CC 1/85; TZM-bl cells; mean ± S.E.M., three experiments.
Series [3] deals with T3, envelope glycoprotein of the HIV-1 clone HXB2 (Human immunodeficiency virus type 1 group M subtype B, UniProt P04578).
T3 construct: One cell line expresses HIV-1 Env (processed by cellular proteases to generate gp120+gp41); expressed in transfected cells; host or cells: CHO cells expressing HXB2 env (and Tat); U373-MAGI target cells
Put plainly: cell-cell fusion assay. In kind it is cell-based.

The next series concerns HIV-1 HC4. The settings on record: read-out: Inhibition of HIV-1 infectivity, IC50 (nM), X4 strains, HC4; TZM-bl cells; mean ± S.E.M., three experiments.
The subject of a further series is HIV-1 NL4-3. Conditions: read-out: Inhibition of HIV-1 infectivity, IC50 (nM), X4 strains, NL4-3; TZM-bl cells; mean ± S.E.M., three experiments.

Read-outs that look alike come from different tables or passages of the source. *1 amine or outer side, *2 acyl side, *3 side chain or, on linkers, in order; H or OH if unused. Where a SMILES comes first, the peptide text is derived from it. [ ]: non-standard residue; d: D form. ξ: configuration not given here. ξ(4-Aminopyrrolidine-3-CO) = O=C(C1CNCC1N[*:1])[*:2]; β3hR = N=C(N)NCCC[C@H](N)CC(=O)O; β3hT = C[C@@H](O)[C@H](N)CC(=O)O; β3hE = N[C@@H](CCC(=O)O)CC(=O)O; X1 = O=C(C1CCCC1N[*:1])[*:2]

Consider `CC[C@H](C)[C@H](NC(=O)[C@H](C)NC(=O)[C@H](CCCNC(=N)N)NC(=O)[C@H](CC(=O)O)NC(=O)[C@H](Cc1c[nH]c2ccccc12)NC(=O)[C@H](C)NC(=O)[C@H](CCC(=O)O)NC(=O)[C@H](Cc1c[nH]c2ccccc12)NC(=O)[C@@H](NC(=O)[C@@H](NC(C)=O)[C@@H](C)O)[C@@H](C)O)C(=O)N[C@@H](C)C(=O)N[C@@H](CCC(=O)O)C(=O)N[C@@H](Cc1ccc(O)cc1)C(=O)N[C@@H](C)C(=O)N[C@@H](C)CC(=O)N[C@@H](CCCNC(=N)N)C(=O)N[C@H](C(=O)N[C@@H](CCC(=O)O)C(=O)N[C@@H](C)CC(=O)N[C@@H](CC(C)C)C(=O)N[C@H](C(=O)N[C@@H](CCCNC(=N)N)CC(=O)N[C@@H](C)C(=O)N[C@@H](C)C(=O)N[C@@H](CCC(N)=O)C(=O)N[C@@H](CCC(=O)O)CC(=O)N[C@@H](CCC(N)=O)C(=O)N[C@@H](CCC(N)=O)C(=O)N[C@@H](CCC(=O)O)CC(=O)N[C@@H](CCCCN)C(=O)N[C@@H](CC(N)=O)C(=O)N[C@@H](CCC(=O)O)C(=O)N[C@@H](C)CC(=O)N[C@@H](C)C(=O)N[C@@H](CC(C)C)C(=O)N[C@@H](CCCNC(=N)N)CC(=O)N[C@@H](CCC(=O)O)C(=O)N[C@@H](CC(C)C)C(N)=O)[C@@H](C)CC)[C@@H](C)CC` [compound 6], for which, at gp41-5 (Table 2, read-out: gp41-5 Ki), the inhibitory constant (Ki) was 15 nM.
With `CC[C@H](C)[C@H](NC(=O)[C@H](C)NC(=O)C1CNCC1NC(=O)[C@H](CC(=O)O)NC(=O)[C@H](Cc1c[nH]c2ccccc12)NC(=O)C1CCCC1NC(=O)[C@H](CCC(=O)O)NC(=O)[C@H](Cc1c[nH]c2ccccc12)NC(=O)[C@@H](NC(=O)C[C@@H](NC(C)=O)[C@@H](C)O)[C@@H](C)O)C(=O)N[C@@H](C)C(=O)N[C@@H](CCC(=O)O)CC(=O)N[C@@H](Cc1ccc(O)cc1)C(=O)N[C@@H](C)C(=O)NC1CCCC1C(=O)N[C@@H](CCCNC(=N)N)C(=O)N[C@H](C(=O)N[C@@H](CCC(=O)O)C(=O)NC1CCCC1C(=O)N[C@@H](CC(C)C)C(=O)N[C@H](C(=O)NC1CNCC1C(=O)N[C@@H](C)C(=O)N[C@@H](C)C(=O)N[C@@H](CCC(N)=O)C(=O)N[C@@H](CCC(=O)O)CC(=O)N[C@@H](CCC(N)=O)C(=O)N[C@@H](CCC(N)=O)C(=O)N[C@@H](CCC(=O)O)CC(=O)N[C@@H](CCCCN)C(=O)N[C@@H](CC(N)=O)C(=O)N[C@@H](CCC(=O)O)C(=O)NC1CCCC1C(=O)N[C@@H](C)C(=O)N[C@@H](CC(C)C)C(=O)NC1CNCC1C(=O)N[C@@H](CCC(=O)O)C(=O)N[C@@H](CC(C)C)C(N)=O)[C@@H](C)CC)[C@@H](C)CC` (stereo partly drawn) [compound 10, Ac-TTWEXWDZAIAEYAXRIEXLIZAAQEQQEKNEXALZEL-NH2] (Ac-[β3hT]TWE[X1]WD[ξ(4-Aminopyrrolidine-3-CO)]AIA[β3hE]YA[X1]RIE[X1]LI[ξ(4-Aminopyrrolidine-3-CO)]AAQ[β3hE]QQ[β3hE]KNE[X1]AL[ξ(4-Aminopyrrolidine-3-CO)]EL-NH2), on proteinase K [1], the “fold improvement in stability to proteinase K relative to α-peptide 3” value is recorded as 280 fold. Besides, on gp41-5, the “fold difference in affinity for gp41-5 relative to 5” value is listed as more than 45 fold. Besides, the “fold higher affinity for gp41-5 relative to 4” value on gp41-5 (relative to 4) is reported as approximately 380 fold. The “fold improvement of Ki relative to 9” value on gp41-5 (relative to 9) was approximately 10 fold. For the same compound, the “NHR + CHR Tm (° C.)” value on NHR α-peptide 1 came out at 55 °C. The half-life at proteinase K [2] was 200 min.
On to `CC[C@H](C)[C@H](NC(=O)[C@H](C)NC(=O)C[C@H](CCCNC(=N)N)NC(=O)[C@H](CC(=O)O)NC(=O)[C@H](Cc1c[nH]c2ccccc12)NC(=O)C[C@H](CCC(=O)O)NC(=O)[C@H](CCC(=O)O)NC(=O)[C@H](Cc1c[nH]c2ccccc12)NC(=O)[C@@H](NC(=O)C[C@H](CCCNC(=N)N)NC(C)=O)[C@@H](C)O)C(=O)N[C@@H](C)C(=O)N[C@@H](CCC(=O)O)CC(=O)N[C@@H](Cc1ccc(O)cc1)C(=O)N[C@@H](C)C(=O)N[C@@H](CCCNC(=N)N)CC(=O)N[C@@H](CCCNC(=N)N)C(=O)N[C@H](C(=O)N[C@@H](CCC(=O)O)C(=O)N[C@@H](CCC(=O)O)CC(=O)N[C@@H](CC(C)C)C(=O)N[C@H](C(=O)N[C@@H](CCCNC(=N)N)CC(=O)N[C@@H](C)C(=O)N[C@@H](C)C(=O)N[C@@H](CCC(N)=O)C(=O)N[C@@H](CCC(=O)O)CC(=O)N[C@@H](CCC(N)=O)C(=O)N[C@@H](CCC(N)=O)C(=O)N[C@@H](CCCNC(=N)N)CC(=O)N[C@@H](CCCCN)C(=O)N[C@@H](CC(N)=O)C(=O)N[C@@H](CCC(=O)O)C(=O)N[C@@H](CCC(=O)O)CC(=O)N[C@@H](C)C(=O)N[C@@H](CC(C)C)C(=O)N[C@@H](CCCNC(=N)N)CC(=O)N[C@@H](CCC(=O)O)C(=O)N[C@@H](CC(C)C)C(N)=O)[C@@H](C)CC)[C@@H](C)CC` [compound 17] (Ac-[β3hR]TWE[β3hE]WD[β3hR]AIA[β3hE]YA[β3hR]RIE[β3hE]LI[β3hR]AAQ[β3hE]QQ[β3hR]KNE[β3hE]AL[β3hR]EL-NH2), for which the Ki on gp41-5 (read-out: Ki for gp41-5) was 11 nM.
Consider `CC[C@H](C)[C@H](NC(=O)[C@H](C)NC(=O)C[C@H](CCCNC(=N)N)NC(=O)[C@H](CC(=O)O)NC(=O)[C@H](Cc1c[nH]c2ccccc12)NC(=O)C[C@H](C)NC(=O)[C@H](CCC(=O)O)NC(=O)[C@H](Cc1c[nH]c2ccccc12)NC(=O)[C@@H](NC(=O)C[C@@H](NC(C)=O)[C@@H](C)O)[C@@H](C)O)C(=O)N[C@@H](C)C(=O)N[C@@H](CCC(=O)O)CC(=O)N[C@@H](Cc1ccc(O)cc1)C(=O)N[C@@H](C)C(=O)N[C@@H](C)CC(=O)N[C@@H](CCCNC(=N)N)C(=O)N[C@H](C(=O)N[C@@H](CCC(=O)O)C(=O)N[C@@H](C)CC(=O)N[C@@H](CC(C)C)C(=O)N[C@H](C(=O)N[C@@H](CCCNC(=N)N)CC(=O)N[C@@H](C)C(=O)N[C@@H](C)C(=O)N[C@@H](CCC(N)=O)C(=O)N[C@@H](CCC(=O)O)CC(=O)N[C@@H](CCC(N)=O)C(=O)N[C@@H](CCC(N)=O)C(=O)N[C@@H](CCC(=O)O)CC(=O)N[C@@H](CCCCN)C(=O)N[C@@H](CC(N)=O)C(=O)N[C@@H](CCC(=O)O)C(=O)N[C@@H](C)CC(=O)N[C@@H](C)C(=O)N[C@@H](CC(C)C)C(=O)N[C@@H](CCCNC(=N)N)CC(=O)N[C@@H](CCC(=O)O)C(=O)N[C@@H](CC(C)C)C(N)=O)[C@@H](C)CC)[C@@H](C)CC` [compound 4], for which the IC50 with HIV-1 DJ258 was 960 ± 200 nM; in the series on HIV-1 CC 1/85, 1300 ± 100 nM; in series [3], 390 ± 40 nM; in the series on HIV-1 HC4, 590 ± 100 nM; with HIV-1 NL4-3, 700 ± 60 nM. Moreover, on proteinase K [1], the “fold improvement in stability to proteinase K relative to α-peptide 3” value is given as 20 fold. For the same compound, on gp41-5 (Table 2, read-out: gp41-5 Ki), the Ki was found to be 3800 nM. The half-life at 20 μM at proteinase K [2] (Tritirachium album (source organism of proteinase K)) and on proteinase K [2] was 14 min each time.
